Reference: the supplement of paper PMC10307832

Columns and labels:
Assay in all cases: relative viability (nuclei count vs DMSO), 5 days (fraction); higher = more cells survive
[1] = compound: CCOC1=CC=CC=C1N=NC2=C(NN(C2=O)C3=NC(=CS3)C4=CC=CC=C4)C [BAM7] + CS(=O)(=O)CCNCc1ccc(-c2ccc3ncnc(Nc4ccc(OCc5cccc(F)c5)c(Cl)c4)c3c2)o1 [Lapatinib] (partner 2 µM)
Outline: (§1)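 One day after seeding in 1536-well plates, lung cancer cell lines were dosed by pin tool. Dosing was either single-drug or a fixed anchor-drug dose plus five library-drug doses (not always all listed) in √10 steps. After 5 days, nuclei were stained in one fix-and-stain step and counted on 4× images, and relative viability is the nuclei count of treated wells over that of vehicle wells, given as the median of duplicate plates.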

[2] = compound: CCn1c(-c2nonc2N)nc2c(C#CC(C)(C)O)ncc(OC[C@H]3CCCNC3)c21 + C[C@@H](Oc1cc(-c2cnn(C3CCNCC3)c2)cnc1N)c1c(Cl)ccc(F)c1Cl [Crizotinib] (partner 1 µM)
Outline: as §1

[3] = compound: CCn1c(-c2nonc2N)nc2c(C#CC(C)(C)O)ncc(OC[C@H]3CCCNC3)c21 + Nc1ncn([C@H]2C[C@H](O)[C@@H](CO)O2)c(=O)n1 [Decitabine] (partner 2 µM)
Outline: as §1

[4] = compound: CCn1c(-c2nonc2N)nc2c(C#CC(C)(C)O)ncc(OC[C@H]3CCCNC3)c21 + O=C(c1cc(Cc2n[nH]c(=O)c3ccccc23)ccc1F)N1CCN(C(=O)C2CC2)CC1 [Olaparib] (partner 8 µM)
Outline: as §1

Cell Line	relative viability ([1]; first compound 0.5 µM)	relative viability ([1]; first compound 5 µM)	relative viability ([1]; first compound 15.81 µM)	relative viability ([1]; first compound 50 µM)	relative viability ([2]; first compound 0.01 µM)	relative viability ([2]; first compound 0.03162 µM)	relative viability ([2]; first compound 0.1 µM)	relative viability ([2]; first compound 0.3162 µM)	relative viability ([2]; first compound 1 µM)	relative viability ([3]; first compound 0.01 µM)	relative viability ([3]; first compound 0.03162 µM)	relative viability ([3]; first compound 0.1 µM)	relative viability ([3]; first compound 0.3162 µM)	relative viability ([3]; first compound 1 µM)	relative viability ([4]; first compound 0.01 µM)	relative viability ([4]; first compound 0.03162 µM)	relative viability ([4]; first compound 0.1 µM)	relative viability ([4]; first compound 0.3162 µM)	relative viability ([4]; first compound 1 µM)
BEN	0.754	0.72	0.676	0.836	0.962	1.11	0.758	0.714	0.885	0.682	0.693	0.569	0.67	0.782	1.14	1.19	1.15	0.919	0.966
COR-L23	1.28	1.14	0.914	1.02	0.612	0.724	0.56	0.662	0.604	0.429	0.353	0.348	0.352	0.38	0.329	0.429	0.357	0.379	0.376
COR-L 105	0.357	0.355	0.382	0.44	0.692	1.05	0.731	0.731	0.875	0.651	0.681	0.651	0.749	1.58	0.658	0.759	0.689	0.696	1.19
EKVX	0.199	0.201	0.192	0.507	0.845	0.929	1.03	0.667	0.795	0.325	0.37	0.369	0.347	0.337	0.89	0.986	0.926	0.768	0.757
EMC-BAC-2	0.943	0.936	0.962	0.968	0.773	0.846	0.696	0.738	0.759	0.966		0.996	0.916	1.04	0.457	0.501	0.503	0.454	0.468
EPLC-272H	0.879	0.924	0.94	0.963	0.962	1.09	0.892	0.802	0.904	0.413	0.378	0.349	0.347	0.356	0.833	0.853	0.641	0.56	0.507
H3255	0.251	0.242	0.247	0.278	0.805	0.983	0.804	0.598	0.782	0.614	0.58	0.639	0.546	0.6	0.571	0.59	0.638	0.483	0.564
HARA	0.68	0.777	0.682	0.793	0.976	1.01	1.05	1.03	1.02	0.508	0.486	0.656	0.551	0.498	0.909	0.903	0.808	0.687	0.763
HCC-15	0.912	0.896	0.908	0.865	0.764	0.868	0.758	0.748	0.726	0.695	0.648	0.637	0.558	0.571	0.691	0.735	0.803	0.672	0.628
HCC-44	1.09	1.02	1	0.983	0.778	0.803	0.773	0.786	0.758	0.957	0.888	0.902	0.968	0.985	0.995	1.02	0.977	0.955	0.994
HCC-78	0.74	0.69	0.98	1.11	0.344	0.353	0.324	0.297	0.322	0.628	0.627	0.674	0.709	0.543	0.739	0.732	0.827	0.794	0.564
HCC-366	1.09	1.1	1.03	0.984	0.505	0.644	0.59	0.501	0.534	0.342	0.34	0.361	0.302	0.335	0.421	0.366	0.359	0.321	0.354
HCC-827	0.205	0.2	0.205	0.202	0.884	0.917	0.879	0.865	0.882	0.348	0.319	0.331	0.308	0.308	0.602	0.671	0.661	0.622	0.683
HOP-62	1.09	1.27	0.969	0.986	0.769	0.978	0.929	0.874	0.888	0.18	0.22	0.246	0.193	0.226	0.396	0.419	0.445	0.521	0.603
LC-2-ad	1.09	0.948	0.933	0.859	0.452	0.483	0.448	0.493	0.479	0.776	0.824	0.875	0.705	0.7	0.739	0.719	0.716	0.657	0.698
LCLC-97TM1	1	1.21	1.04	1.31		0.435	0.331	0.333	0.367	0.2	0.226	0.268	0.235	0.268	0.413	0.509	0.347	0.391	0.321
LK-2	1.22	1.03	1.02	1.11	0.247	0.181	0.215	0.24	0.232	0.267	0.302	0.294	0.312	0.307	0.641	0.566	0.645	0.865	0.72

Cell Line	relative viability ([1]; first compound 0.5 µM)	relative viability ([1]; first compound 5 µM)	relative viability ([1]; first compound 15.81 µM)	relative viability ([1]; first compound 50 µM)	relative viability ([2]; first compound 0.01 µM)	relative viability ([2]; first compound 0.03162 µM)	relative viability ([2]; first compound 0.1 µM)	relative viability ([2]; first compound 0.3162 µM)	relative viability ([2]; first compound 1 µM)	relative viability ([3]; first compound 0.01 µM)	relative viability ([3]; first compound 0.03162 µM)	relative viability ([3]; first compound 0.1 µM)	relative viability ([3]; first compound 0.3162 µM)	relative viability ([3]; first compound 1 µM)	relative viability ([4]; first compound 0.01 µM)	relative viability ([4]; first compound 0.03162 µM)	relative viability ([4]; first compound 0.1 µM)	relative viability ([4]; first compound 0.3162 µM)	relative viability ([4]; first compound 1 µM)
LOU-NH91	0.749	0.822	0.767	0.819	0.758	0.747	0.742	0.543	0.754	0.821	0.788	0.891	0.73	0.779	0.936	0.914	0.936	0.797	0.856
LU99A	0.975	0.788	1.09	1.03	0.567	0.556	0.571	0.494	0.491	0.884	0.971	0.866	0.826	0.883	0.282	0.312	0.251	0.258	0.288
LXF-289	0.947	0.951	0.913	0.851	0.856	0.815	0.797	0.758	0.828	0.42	0.369	0.352	0.35	0.364	1.06	1.1	1.03	0.973	1.05
NCI-H23	1.48	1.1	0.997	1.26	0.477	0.572	0.444	0.48	0.417	0.287	0.332	0.307	0.27	0.302	0.294	0.275	0.269	0.309	0.313
NCI-H322M	0.659	0.593	0.577	0.572	0.969	0.981	0.9	0.811	0.914	0.785	0.721	0.617	0.593	0.575	0.779	0.71	0.693	0.749	0.831
NCI-H358	0.46	0.522	0.479	0.568	0.485	0.604	0.51	0.669	0.611	0.234	0.191	0.221	0.207	0.201	0.556	0.601	0.569	0.525	0.518
NCI-H460	0.904	1.13	0.953	1.03	0.895	1.07	0.814	0.786	0.884	0.529	0.398	0.493	0.465	0.513	0.363	0.411	0.474	0.403	0.495
NCI-H520	0.804	0.904	0.93	1.03	0.732	1.02	0.616	0.644	0.452	0.483	0.47	0.387	0.359	0.332	0.337	0.341	0.236	0.194	0.169
NCI-H596	0.984	1.14	1.01	1.12	0.834	1.08	0.996	0.915	0.948	1.05		0.961	0.929	1.03	0.682		0.72	0.697	0.871
NCI-H647	1.06	0.926	1.01	1.06	1.04	1.31	1.11	1.07	0.92	0.384	0.379	0.407	0.299	0.371	0.467	0.775	0.486	0.561	0.517
NCI-H650	0.787	0.92	0.842	1.13	0.561	0.697	0.683	0.68	0.666	0.323	0.348	0.32	0.304	0.29	0.387	0.43	0.435	0.371	0.392
NCI-H661	0.704	0.494	0.41	0.54	1.03	0.984	1.08	0.992	0.989	0.504	0.591	0.513	0.561	0.543	0.713	0.755	0.836	0.771	0.758
NCI-H727	0.923	1.1	0.788	0.834	0.841	0.94	0.785	0.667	0.763	1.03	0.976	0.943	0.825	0.714	0.801	0.668	0.751	0.805	0.869
NCI-H838	1.03	1.04	0.908	1.14	0.805	0.969	0.826	0.835	0.841	0.452	0.416	0.482	0.44	0.497	0.74	0.838	0.804	0.726	0.76
NCI-H1355	0.972	1.01	0.986	1.02	1.09	0.943	1.03	1.02	0.799	0.339	0.346	0.385	0.324	0.355	0.689	0.774	0.734	0.709	0.735
NCI-H1437	0.686	0.514	0.51	0.68	0.911	0.821	0.899	0.936	0.927	0.558	0.541	0.564	0.611	0.627	0.633	0.648	0.64	0.605	0.625
NCI-H1650	0.758	0.726	0.806	0.855	0.964	1.06	0.924	0.971	1.07	0.355	0.455	0.522	0.208	0.442	0.782	0.837	0.893	0.761	0.738
